# Source: the Kinase Knowledgebase extract (Sharma et al. 2016)
# Target: CDK2 (UniProt P24941)
# Assay: Enzyme Assay
row,SMILES,IC50
1,O=C(CCO)Nc1c[nH]nc1C(=O)Nc1ccc(F)cc1,< 20 µM
2,COc1ccc(F)c(C(=O)Nc2c[nH]nc2C(=O)Nc2ccc(F)cc2)c1,< 20 µM
3,O=C(NC1CCCC1)c1n[nH]cc1NC(=O)c1c(F)cccc1F,< 20 µM
4,O=C(Nc1c[nH]nc1C(=O)Nc1ccc(F)cc1)c1cnc[nH]1,< 20 µM
5,O=C(NCc1c(F)cccc1F)c1n[nH]cc1NC(=O)c1c(F)cccc1F,< 20 µM
6,O=C(Nc1c[nH]nc1C(=O)Nc1ccc(F)cc1)c1ccc2ccccc2n1,< 20 µM
7,O=C(Nc1ccc(F)cc1)c1n[nH]cc1NC(=O)C(F)(F)F,< 20 µM
8,Cn1cc(CC(=O)Nc2c[nH]nc2C(=O)Nc2ccc(F)cc2)c2ccccc21,< 20 µM
9,Cc1[nH]nc(C(=O)Nc2ccc(F)cc2)c1NC(=O)c1c(F)cccc1F,< 20 µM
10,O=C(Nc1ccccn1)c1n[nH]cc1NC(=O)c1c(F)cccc1F,< 20 µM
11,Cc1ccc(C(=O)Nc2c[nH]nc2C(=O)Nc2ccc(F)cc2)cc1,< 20 µM
12,CC1CCCC(C)N1CCNC(=O)c1n[nH]cc1NC(=O)c1c(F)cccc1F (centres undefined),< 20 µM
13,O=C(Nc1cc(F)ccc1OCCN1CCCC1)c1n[nH]cc1NC(=O)c1c(F)cccc1F,< 20 µM
14,CN1CCN(c2c[nH]nc2C(=O)Nc2ccc(F)cc2)CC1,< 20 µM
15,O=C(Nc1c[nH]nc1C(=O)Nc1ccc(F)cc1)c1ccc(O)nc1,< 20 µM
16,Cc1ccoc1C(=O)Nc1c[nH]nc1C(=O)Nc1ccc(F)cc1,< 20 µM
17,O=C(CS(=O)(=O)c1ccccc1)Nc1c[nH]nc1C(=O)Nc1ccc(F)cc1,< 20 µM
18,O=C(Nc1c[nH]nc1C(=O)Nc1ccc(F)cc1)c1ccsc1,< 20 µM
19,Cc1cccc(C(=O)Nc2c[nH]nc2C(=O)Nc2ccc(F)cc2)c1,< 20 µM
20,O=C(Nc1c[nH]nc1C(=O)Nc1ccc(F)cc1)c1cccc([N+](=O)[O-])c1,< 20 µM
21,Cn1cc(N)nc1C(=O)Nc1c[nH]nc1C(=O)Nc1ccc(F)cc1,< 20 µM
22,O=C(CCN1CCCCC1)Nc1c[nH]nc1C(=O)Nc1ccc(F)cc1,< 20 µM

row,SMILES,IC50
1,O=C(Nc1cccc(CN2CCOCC2)c1)c1n[nH]cc1NC(=O)c1c(F)cccc1F,< 20 µM
2,COc1ccc(CNC(=O)c2n[nH]cc2NC(=O)c2c(F)cccc2F)cc1,< 20 µM
3,CC1(C(=O)Nc2c[nH]nc2C(=O)Nc2ccc(F)cc2)CC1,< 20 µM
4,O=C(NCc1ccccc1F)c1n[nH]cc1NC(=O)c1c(F)cccc1F,< 20 µM
5,O=C(Nc1cccc(CO)c1)c1n[nH]cc1NC(=O)c1c(F)cccc1F,< 20 µM
6,O=C(NCC1CCOCC1)c1n[nH]cc1NC(=O)c1c(F)cccc1F,< 20 µM
7,COc1cccc(C(=O)Nc2c[nH]nc2C(=O)Nc2ccc(F)cc2)c1,< 20 µM
8,CC1(C)CC(NC(=O)c2n[nH]cc2NC(=O)c2c(F)cccc2F)CC(C)(C)N1,< 750 µM
9,O=C(NCc1ccccc1Cl)c1n[nH]cc1NC(=O)c1c(F)cccc1F,< 20 µM
10,O=C(Nc1c[nH]nc1C(=O)Nc1ccc(F)cc1)c1cc[nH]c1,< 20 µM
11,CNS(=O)(=O)Cc1ccc(CNC(=O)c2n[nH]cc2-c2ccc(Cl)cc2Cl)cc1,< 20 µM
12,O=C(Nc1ccc(F)cc1)c1n[nH]cc1Nc1nccnc1Cl,< 20 µM
13,CN1CCN(c2ccc(CNC(=O)c3n[nH]cc3-c3cccc(O)c3)cc2)CC1,< 20 µM
14,O=C(NC1CCN(Cc2ccccc2)C1)c1n[nH]cc1NC(=O)c1c(F)cccc1F (centres undefined),< 20 µM
15,O=C(Nc1c[nH]nc1C(=O)Nc1ccc(F)cc1)c1ccccc1O,< 20 µM
16,CC(C)(C)C1CCC(NC(=O)c2n[nH]cc2NC(=O)c2c(F)cccc2F)CC1 (centres undefined),< 20 µM
17,CC(CO)Nc1c[nH]nc1C(=O)Nc1ccc(F)cc1 (centres undefined),< 20 µM
18,COc1cccc(OC)c1C(=O)Nc1c[nH]nc1C(=O)Nc1ccc(F)cc1,< 20 µM
19,O=C(NC1CCOCC1)c1n[nH]cc1NC(=O)c1c(F)cccc1F,< 20 µM
20,O=C(Nc1ccccc1)c1n[nH]cc1-c1ccccc1,< 20 µM
21,CC(=O)N1CCC(C(=O)Nc2c[nH]nc2C(=O)Nc2ccc(F)cc2)CC1,< 20 µM
22,O=C(Cc1c[nH]c2ccccc12)Nc1c[nH]nc1C(=O)Nc1ccc(F)cc1,< 20 µM
